{
  "source": "patent US12622916B2",
  "about": "“Use of H3K9me3 modulation for enhancing cognitive function” (THE REGENTS OF THE UNIVERSITY OF CALIFORNIA, priority 2015, dated 2026)",
  "key": {"H3K9me3": {"test_system": "H3K9me3", "assay": "H3K9me3 level in cultured hippocampal neurons by Western blotting", "format": "cell-based", "protocol": "Next, we examined the effect of ETP69 on H3K9me3 levels in cultured hippocampal neurons. […] FIGS. 14A-B are illustrations of the effect of ETP69 on H3K9me3 levels in 14 DIV hippocampal neurons (FIG. 14A—gel image; FIG. 14B—quantification, n=3, *, p<0.05). As the illustrations show, ETP69 treatment (24 hours) decreased H3K9me3 level measured by Western blotting."}, "CREB": {"test_system": "CREB", "assay": "CREB phosphorylation at Ser133 by Western blotting", "format": "cell-based", "source_text": "FIG. 16 is an image illustrating ETP69 increased CREB phosphorylation at Ser133 measured by Western blotting. CREB is a transcription factor whose activation is involved in synaptic plasticity and memory formation."}, "[1]": {"test_system": "panel of 17 human histone methytransferases", "assay": "Selectivity against a panel of 17 human histone methyltransferases", "format": "biochemical", "conditions": "versus chaetocin A", "source_text": "In accordance with one or more embodiments of the present invention, the role of H3K9me3 in learning and memory in an animal model of aging using a newly developed analog of the epidithiodiketopiperazine alkaloid chaetocin A called ETP69, illustrated in FIG. 1, is studied."}, "bdnf promoters": {"test_system": "bdnf promoters", "assay": "ChIP for H3K9me3 at BDNF promoter regions in hippocampus", "format": "in vivo", "conditions": "aged mice, ETP69 versus controls", "protocol": "ChIP for BDNF promoter regions: After cross-linking with 1% formaldehyde, chromatin was sheared to fragments of 200-500 bp. Immunoprecipitation was realized overnight at 4° C. with an antibody directed against histone H3K9me3 (H3K9me3; Millipore). After washes, elution from beads, and reversal of the cross-link, immunoprecipitated DNA was purified and analyzed in triplicate by qRT-PCR with an internal standard curve prepared from pooled input samples. Each sample was normalized with the respective input value. Primers for bdnf promoters for exon I, IV, and VI correspond to each unique exon sequence. RT-qPCR primer sets were designed using the Roche Universal Probe Library Assay Design Center and obtained from Integrated DNA Technologies (Coralville, IA). RT-qPCR reactions were run in a Stratagene MX3005P thermocycler at 95° C. for 3 min, followed by 45 cycles of 95° C. for 10 s, and 58° C. for 15 s. Each RT-qPCR run included all samples run in triplicate and a standard curve. Data were analyzed by the 2^−ΔΔct method and expressed as fold change over control after normalizing with input samples, as described previously."}, "[2]": {"test_system": "14 DIV hippocampal neurons", "assay": "PSD-95 immunoreactivity and dendritic F-actin staining in hippocampal neurons", "format": "cell-based", "conditions": "20 nM, 24 hours", "source_text": "Neurons were stained with antibodies against PSD-95 (red) and MAP2 (green). Scale bars: 10 μm, top panel; 2 μm, bottom panel.\nNote presence of numerous puncta marking presence of many spines. Top panel: Control, bottom panel: ETP treated neurons. Scale bar: 2 μm."}, "young C57Bl/6J male mice": {"test_system": "young C57Bl/6J male mice", "assay": "Object location memory (OLM) task in young mice", "format": "in vivo", "protocol": "Object Location Memory (OLM): Training and testing procedures were performed using a standard OLM protocol. Briefly, 22 aged mice and 18 young mice were handled for about 2-3 minutes per day for 5 days, followed by habituation to the experimental apparatus (white rectangular open field measuring 30×23×21.5 cm) for 5 min per day for 5 consecutive days before training.\n18 young mice were also tested in the same OLM paradigm as described above. To determine whether the drug impacted acquisition or consolidation mechanisms, the young mice were injected with the 10 mg/kg compound or vehicle (i.p, n=6/group), either just before or right after the acquisition trial, and tested 24 hours post-acquisition. FIG. 3 is a graphical representation of the results of OLM test showing the differences in exploration between mice treated with either vehicle, or 10 mg/kg of ETP69. […] Data are mean±SEM; n=7 or 8/group."}, "Arc": {"test_system": "Arc", "assay": "Arc changes after ETP69 treatment (data not shown)", "format": "in vivo, mice"}, "aged mice": {"test_system": "aged mice", "assay": "Contextual fear conditioning in aged mice", "format": "in vivo", "conditions": "10 mg/kg i.p., versus aged controls", "protocol": "Fear conditioning: 14 aged (18-20 months) male mice were placed in the fear-conditioning chamber were allowed to explore for 2 minutes before receiving one electric foot shocks (2 seconds, 0.2 mA). Animals were returned to the home cage 2 minutes after the foot shock."}, "BDNF": {"test_system": "BDNF", "assay": "ELISA for BDNF protein in hippocampus", "format": "in vivo", "conditions": "aged mice; 10 mg/kg i.p. before or right after OLM acquisition; versus controls", "protocol": "Acquisition (pre-training) or Consolidation (post-training): In another test, aimed to determine the efficacy of the compound in pre and post training paradigms, the same group of 22 aged animals were retested on the OLM task 3 weeks after the first test. To determine whether the drug impacted acquisition or consolidation mechanisms, mice were injected with the 10 mg/kg compound (i.p. n=7) or vehicle (n=8). Animals were sacrificed right after retention testing (i.e. 24 hours post injection), and hippocampi were removed, rapidly frozen on dry ice, and stored at −80° C. until processing for trimethylation levels and BDNF assay. FIG. 2 is a graphical representation of the effect of the drug at 10 mg/kg and 20 mg/kg (i.p) administered 30 minutes prior to acquisition phase in the novel place position task in mice. […] Data are mean±SEM; n=7 or 8/group.\nELISA was performed using the BDNF Emax Immunoassay System (G7610, Promega) according to the manufacturer's instructions. Two sets of samples were prepared from the hippocampus of each animal, and all reactions were performed in duplicate."}},
  "note": "“Also recorded” adds a separate entry of the source.",
  "data": [
    {"smiles": "CN1C(=O)[C@@]23C[C@](C)(C#N)[C@H](c4ccc5c(c4)OCO5)N2C(=O)[C@]1(C)SS3", "note": "(racemic) [ETP69, Rac-(3S,6S,7S,8aS)-6-(benzo[d][1,3]dioxol-5-yl)-2,3,7-trimethyl-1,4-dioxohexahydro-6H-3,8a-epidithiopyrrolo[1,2-a]pyrazine-7-carbonitrile]", "values": [
      {"measurement": "neuronal H3K9me3 level at 20 nM", "setting": "H3K9me3; 20 nM, 24 hours", "result": "greatest decrease"},
      {"measurement": "neuronal H3K9me3 level", "setting": "H3K9me3; 24 hours treatment, 14 DIV hippocampal neurons", "result": "dose-dependent decrease"},
      {"measurement": "phosphorylation of CREB at Ser133", "setting": "CREB", "result": "increased phosphorylation"},
      {"measurement": "selectivity against a panel of 17 human histone methytransferases compared with chaetocin A", "setting": "[1]", "result": "significantly greater selectivity"},
      {"measurement": "H3K9me3 at bdnf promoter I (Exon 1)", "setting": "bdnf promoters", "result": "significant effect of treatment; also recorded: significantly lower"},
      {"measurement": "PSD-95 immunoreactivity", "setting": "[2]", "result": "increased PSD-95 immunoreactivity"},
      {"measurement": "dendritic F-actin staining", "setting": "[2]", "result": "increased dendritic F-actin staining"},
      {"measurement": "OLM acquisition phase: group differences", "setting": "young C57Bl/6J male mice; 10 mg/kg i.p.", "result": "no significant group differences"},
      {"measurement": "OLM performance, pre-trial administration", "setting": "young C57Bl/6J male mice; 10 mg/kg i.p. 30 minutes prior to acquisition phase", "result": "did not show any statistical differences"},
      {"measurement": "OLM performance, post-trial administration", "setting": "young C57Bl/6J male mice; 10 mg/kg i.p. immediately after acquisition", "result": "did not show any statistical differences"},
      {"measurement": "changes in Arc", "setting": "Arc", "result": "did not observe changes in Arc"},
      {"measurement": "contextual fear conditioning performance (freezing)", "setting": "aged mice", "result": "improved performance"},
      {"measurement": "BDNF protein levels in hippocampus", "setting": "BDNF", "result": "significantly elevated levels of BDNF"}
    ]}
  ]
}
